In ChEMBL document CHEMBL5614394, “Novel pleuromutilin derivatives conjugated with phenyl-sulfide and boron-containing moieties as potent antibacterial agents against antibiotic-resistant bacteria” (Eur J Med Chem, 2024):
≈ marks a conversion by molar mass, not a printed value.

Tested on: Staphylococcus epidermidis
Assay: Antibacterial activity against Staphylococcus epidermidis ATCC 12228 assessed as inhibition of visible growth of bacteria incubated for 24 hrs by CLSI protocol based broth-dilution method
Format: functional

MIC [µg/mL]	Molecule
0.125 (≈ 0.202 µM)	C=C[C@]1(C)C[C@@H](OC(=O)CSc2cccc(NCc3cccc(B(O)O)c3)c2)[C@]2(C)[C@H](C)CC[C@]3(CCC(=O)[C@H]32)[C@@H](C)[C@@H]1O
0.25	22-(3-(((5-Borono-3-pyridinyl)carbonyl)amino)phenylsulfanyl)-22-deoxypleuromutilin
0.5 (≈ 0.789 µM)	C=C[C@]1(C)C[C@@H](OC(=O)CSc2ccc(NC(=O)c3ccc(B(O)O)cc3)cc2)[C@]2(C)[C@H](C)CC[C@]3(CCC(=O)[C@H]32)[C@@H](C)[C@@H]1O
0.25 (≈ 0.387 µM)	C=C[C@]1(C)C[C@@H](OC(=O)CSc2ccc(NC(=O)c3ccc4c(c3)B(O)OC4)cc2)[C@]2(C)[C@H](C)CC[C@]3(CCC(=O)[C@H]32)[C@@H](C)[C@@H]1O

Tested on: Staphylococcus aureus
Assay: Antibacterial activity against Staphylococcus aureus ATCC 29213 assessed as inhibition of visible growth of bacteria incubated for 24 hrs by CLSI protocol based broth-dilution method
Format: functional

MIC [µg/mL]	Molecule
0.063 (≈ 0.102 µM)	C=C[C@]1(C)C[C@@H](OC(=O)CSc2cccc(NCc3cccc(B(O)O)c3)c2)[C@]2(C)[C@H](C)CC[C@]3(CCC(=O)[C@H]32)[C@@H](C)[C@@H]1O
0.25	22-(3-(((5-Borono-3-pyridinyl)carbonyl)amino)phenylsulfanyl)-22-deoxypleuromutilin
0.063 (≈ 0.0994 µM)	C=C[C@]1(C)C[C@@H](OC(=O)CSc2ccc(NC(=O)c3ccc(B(O)O)cc3)cc2)[C@]2(C)[C@H](C)CC[C@]3(CCC(=O)[C@H]32)[C@@H](C)[C@@H]1O
0.016 (≈ 0.0248 µM)	C=C[C@]1(C)C[C@@H](OC(=O)CSc2ccc(NC(=O)c3ccc4c(c3)B(O)OC4)cc2)[C@]2(C)[C@H](C)CC[C@]3(CCC(=O)[C@H]32)[C@@H](C)[C@@H]1O
